Results as given in the NIST ThermoML archive (doi:10.1021/je800242n).
Several values for one entry are separate records, joined by “and”; a condition that tells them apart may be missing. Equal entries are not always repeated.

Settings: Crystal

[F][Cd][F] [cadmium difluoride]
Settings | vapor or sublimation pressure
962 K | 1.26e-05 kPa
968 K | 1.35e-05 kPa
973 K | 1.58e-05 kPa
977 K | 2e-05 kPa
978 K | 2.51e-05 kPa
983 K | 2.51e-05 kPa
984 K | 2.69e-05 kPa
988 K | 3.39e-05 kPa
992 K | 3.39e-05 kPa
993 K | 3.47e-05 kPa
1000 K | 5.01e-05 kPa
1001 K | 4.68e-05 kPa
1002 K | 4.57e-05 kPa
1003 K | 5.75e-05 kPa
1004 K | 5.01e-05 kPa
1009 K | 6.76e-05 kPa
1012 K | 7.94e-05 kPa
1013 K | 6.92e-05 kPa and 6.76e-05 kPa and 7.59e-05 kPa
1014 K | 5.75e-05 kPa
1016 K | 6.76e-05 kPa
1017 K | 5.75e-05 kPa and 9.12e-05 kPa
1018 K | 8.51e-05 kPa
1021 K | 0.000102 kPa
1022 K | 8.71e-05 kPa and 0.000115 kPa
1025 K | 6.76e-05 kPa and 0.000107 kPa
1026 K | 7.94e-05 kPa
1027 K | 9.12e-05 kPa
1028 K | 0.000117 kPa
1030 K | 0.000126 kPa
1031 K | 0.000135 kPa
1032 K | 9.12e-05 kPa and 0.000102 kPa and 0.00012 kPa
1033 K | 9.12e-05 kPa and 0.000158 kPa
1036 K | 0.000102 kPa
1038 K | 0.000115 kPa and 0.000162 kPa
1040 K | 0.000135 kPa and 0.000186 kPa
1042 K | 0.000162 kPa and 0.000182 kPa
1043 K | 0.000186 kPa [middle of 4 runs]
1046 K | 0.000138 kPa and 0.000158 kPa
1048 K | 0.000158 kPa
1049 K | 0.000229 kPa
1050 K | 0.000182 kPa
1051 K | 0.000214 kPa
1052 K | 0.000251 kPa and 0.000295 kPa
1053 K | 0.000251 kPa
1054 K | 0.000204 kPa and 0.000263 kPa
1055 K | 0.000182 kPa and 0.000204 kPa
1057 K | 0.000204 kPa
1059 K | 0.000229 kPa
1060 K | 0.000275 kPa
1061 K | 0.000309 kPa
1062 K | 0.000389 kPa
1064 K | 0.000275 kPa and 0.000339 kPa
1066 K | 0.000275 kPa
1068 K | 0.000295 kPa and 0.000316 kPa and 0.000275 kPa
1069 K | 0.000407 kPa and 0.000389 kPa
1070 K | 0.000355 kPa
1071 K | 0.000339 kPa
1073 K | 0.000398 kPa
1074 K | 0.000525 kPa
1075 K | 0.000389 kPa and 0.000479 kPa
1077 K | 0.000363 kPa
1078 K | 0.000407 kPa
1079 K | 0.000457 kPa [middle of 4 runs]
1080 K | 0.000501 kPa
1082 K | 0.000457 kPa
1084 K | 0.000537 kPa and 0.000676 kPa
1086 K | 0.000676 kPa
1087 K | 0.000501 kPa
1088 K | 0.00055 kPa
1089 K | 0.000457 kPa and 0.000589 kPa
1090 K | 0.00055 kPa
1091 K | 0.000708 kPa
1093 K | 0.000617 kPa
1095 K | 0.000933 kPa
1096 K | 0.000631 kPa
1097 K | 0.000631 kPa and 0.000724 kPa and 0.000912 kPa
1098 K | 0.000724 kPa and 0.000575 kPa and 0.000741 kPa
1101 K | 0.000912 kPa
1102 K | 0.000724 kPa
1103 K | 0.000933 kPa
1104 K | 0.000813 kPa
1105 K | 0.000871 kPa and 0.0012 kPa
1107 K | 0.000912 kPa and 0.000813 kPa and 0.000676 kPa
1108 K | 0.0012 kPa
1110 K | 0.00117 kPa
1111 K | 0.00117 kPa
1114 K | 0.001 kPa and 0.0011 kPa and 0.00105 kPa
1115 K | 0.00135 kPa
1116 K | 0.00151 kPa
1117 K | 0.00117 kPa and 0.00102 kPa and 0.00115 kPa
1118 K | 0.0011 kPa and 0.001 kPa and 0.00158 kPa
1120 K | 0.0017 kPa
1121 K | 0.00162 kPa
1123 K | 0.00145 kPa
1124 K | 0.00115 kPa
1125 K | 0.00132 kPa and 0.00138 kPa
1126 K | 0.00129 kPa
1127 K | 0.00145 kPa and 0.00129 kPa and 0.00191 kPa
1129 K | 0.00141 kPa and 0.002 kPa and 0.00195 kPa
1134 K | 0.00174 kPa
1135 K | 0.00195 kPa
1136 K | 0.00178 kPa and 0.00166 kPa
1137 K | 0.00245 kPa
1138 K | 0.00245 kPa
1139 K | 0.00182 kPa
1145 K | 0.00224 kPa
1147 K | 0.00229 kPa
1149 K | 0.00229 kPa
